Measurements as given in PMC7026418, “The kinase polypharmacology landscape of clinical PARP inhibitors” (Scientific Reports, 2020).
Read-outs that look alike come from different tables or passages of the source.

Experiments:
Assay in all cases: biochemical
Design in all cases: DiscoveRx KINOMEscan active site-directed competition binding; percent of control kinase bound to immobilised ligand
[1] = target: KIT(V559D,T670I) (Homo sapiens, UniProt P10721, T670I/V559D)
[2] = target: T1, PKAC-beta (Homo sapiens, UniProt P22694)
T1 construct: gene PRKACB

[3] = target: PIK3CA(I800L) (Homo sapiens, UniProt P42336, I800L)
[4] = target: T2, CDC2L1 (Homo sapiens, UniProt P21127)
T2 construct: gene CDK11B
T2 sequence (P21127 whole entry): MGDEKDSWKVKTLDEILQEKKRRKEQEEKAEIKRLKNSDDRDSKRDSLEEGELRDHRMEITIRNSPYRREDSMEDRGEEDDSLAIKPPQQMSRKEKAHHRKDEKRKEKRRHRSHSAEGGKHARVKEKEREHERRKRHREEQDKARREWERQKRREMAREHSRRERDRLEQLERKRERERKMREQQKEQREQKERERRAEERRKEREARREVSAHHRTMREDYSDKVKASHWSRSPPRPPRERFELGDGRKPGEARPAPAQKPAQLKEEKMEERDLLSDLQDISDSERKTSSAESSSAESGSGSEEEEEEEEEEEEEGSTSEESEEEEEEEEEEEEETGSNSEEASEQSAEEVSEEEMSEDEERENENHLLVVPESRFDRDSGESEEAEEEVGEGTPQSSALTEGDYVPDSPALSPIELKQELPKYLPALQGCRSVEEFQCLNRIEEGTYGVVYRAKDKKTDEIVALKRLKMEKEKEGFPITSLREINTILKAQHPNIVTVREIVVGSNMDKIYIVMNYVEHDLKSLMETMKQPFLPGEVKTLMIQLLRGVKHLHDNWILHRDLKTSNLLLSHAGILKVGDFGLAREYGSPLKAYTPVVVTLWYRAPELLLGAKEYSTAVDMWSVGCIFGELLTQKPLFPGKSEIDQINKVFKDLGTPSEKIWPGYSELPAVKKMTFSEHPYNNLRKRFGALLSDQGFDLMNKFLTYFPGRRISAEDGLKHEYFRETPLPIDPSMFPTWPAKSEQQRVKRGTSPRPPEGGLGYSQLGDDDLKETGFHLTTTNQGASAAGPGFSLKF

[5] = target: CSNK1G1 (Homo sapiens, UniProt Q9HCP0)
[6] = target: MYLK2 (Homo sapiens, UniProt Q9H1R3)
Chain of MYLK2 (Q9H1R3 whole entry): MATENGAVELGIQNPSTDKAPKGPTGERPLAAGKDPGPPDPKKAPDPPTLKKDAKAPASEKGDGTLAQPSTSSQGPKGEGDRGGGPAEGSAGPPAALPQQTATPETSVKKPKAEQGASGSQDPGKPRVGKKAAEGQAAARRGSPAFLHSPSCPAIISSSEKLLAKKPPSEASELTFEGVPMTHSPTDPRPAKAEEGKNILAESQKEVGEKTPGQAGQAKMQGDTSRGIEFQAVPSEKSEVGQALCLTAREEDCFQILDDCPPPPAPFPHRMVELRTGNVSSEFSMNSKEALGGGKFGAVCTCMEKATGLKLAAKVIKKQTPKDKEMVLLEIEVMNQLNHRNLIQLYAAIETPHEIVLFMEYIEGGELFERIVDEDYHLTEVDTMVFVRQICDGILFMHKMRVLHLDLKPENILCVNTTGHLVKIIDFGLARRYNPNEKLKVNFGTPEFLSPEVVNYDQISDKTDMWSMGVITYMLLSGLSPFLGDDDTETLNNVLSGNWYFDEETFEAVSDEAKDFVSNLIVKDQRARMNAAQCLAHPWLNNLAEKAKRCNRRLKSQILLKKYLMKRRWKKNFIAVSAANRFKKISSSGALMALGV

[7] = target: T3, PIK3CD (Homo sapiens, UniProt O00329)
T3 sequence (O00329 1-1044): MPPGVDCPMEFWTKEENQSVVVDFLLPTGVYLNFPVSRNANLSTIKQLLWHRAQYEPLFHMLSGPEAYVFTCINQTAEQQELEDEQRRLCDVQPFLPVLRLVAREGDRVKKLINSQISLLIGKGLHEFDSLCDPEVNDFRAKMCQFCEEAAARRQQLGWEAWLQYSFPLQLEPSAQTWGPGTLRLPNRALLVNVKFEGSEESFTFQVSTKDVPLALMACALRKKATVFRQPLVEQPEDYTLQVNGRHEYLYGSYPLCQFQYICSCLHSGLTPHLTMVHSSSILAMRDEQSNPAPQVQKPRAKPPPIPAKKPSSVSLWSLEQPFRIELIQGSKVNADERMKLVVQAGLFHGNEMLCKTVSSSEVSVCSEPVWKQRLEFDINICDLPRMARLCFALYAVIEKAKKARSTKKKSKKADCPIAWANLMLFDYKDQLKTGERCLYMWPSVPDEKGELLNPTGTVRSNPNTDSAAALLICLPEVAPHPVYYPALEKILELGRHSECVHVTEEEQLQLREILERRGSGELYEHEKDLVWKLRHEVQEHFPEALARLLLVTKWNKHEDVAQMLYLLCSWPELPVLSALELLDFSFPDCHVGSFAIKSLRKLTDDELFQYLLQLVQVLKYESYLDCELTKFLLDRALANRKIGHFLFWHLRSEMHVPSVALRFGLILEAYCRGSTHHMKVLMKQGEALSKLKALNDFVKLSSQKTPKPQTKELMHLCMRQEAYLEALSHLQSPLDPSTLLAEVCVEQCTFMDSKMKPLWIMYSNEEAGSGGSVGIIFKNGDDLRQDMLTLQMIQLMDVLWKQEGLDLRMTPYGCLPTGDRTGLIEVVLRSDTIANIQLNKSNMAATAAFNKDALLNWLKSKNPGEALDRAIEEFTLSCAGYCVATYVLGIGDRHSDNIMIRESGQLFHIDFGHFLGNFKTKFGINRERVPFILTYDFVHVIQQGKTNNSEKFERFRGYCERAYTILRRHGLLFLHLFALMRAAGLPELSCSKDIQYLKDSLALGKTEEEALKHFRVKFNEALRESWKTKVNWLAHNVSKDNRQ

[8] = target: ERBB2 (Homo sapiens, UniProt P04626)
Chain of ERBB2 (P04626 whole entry): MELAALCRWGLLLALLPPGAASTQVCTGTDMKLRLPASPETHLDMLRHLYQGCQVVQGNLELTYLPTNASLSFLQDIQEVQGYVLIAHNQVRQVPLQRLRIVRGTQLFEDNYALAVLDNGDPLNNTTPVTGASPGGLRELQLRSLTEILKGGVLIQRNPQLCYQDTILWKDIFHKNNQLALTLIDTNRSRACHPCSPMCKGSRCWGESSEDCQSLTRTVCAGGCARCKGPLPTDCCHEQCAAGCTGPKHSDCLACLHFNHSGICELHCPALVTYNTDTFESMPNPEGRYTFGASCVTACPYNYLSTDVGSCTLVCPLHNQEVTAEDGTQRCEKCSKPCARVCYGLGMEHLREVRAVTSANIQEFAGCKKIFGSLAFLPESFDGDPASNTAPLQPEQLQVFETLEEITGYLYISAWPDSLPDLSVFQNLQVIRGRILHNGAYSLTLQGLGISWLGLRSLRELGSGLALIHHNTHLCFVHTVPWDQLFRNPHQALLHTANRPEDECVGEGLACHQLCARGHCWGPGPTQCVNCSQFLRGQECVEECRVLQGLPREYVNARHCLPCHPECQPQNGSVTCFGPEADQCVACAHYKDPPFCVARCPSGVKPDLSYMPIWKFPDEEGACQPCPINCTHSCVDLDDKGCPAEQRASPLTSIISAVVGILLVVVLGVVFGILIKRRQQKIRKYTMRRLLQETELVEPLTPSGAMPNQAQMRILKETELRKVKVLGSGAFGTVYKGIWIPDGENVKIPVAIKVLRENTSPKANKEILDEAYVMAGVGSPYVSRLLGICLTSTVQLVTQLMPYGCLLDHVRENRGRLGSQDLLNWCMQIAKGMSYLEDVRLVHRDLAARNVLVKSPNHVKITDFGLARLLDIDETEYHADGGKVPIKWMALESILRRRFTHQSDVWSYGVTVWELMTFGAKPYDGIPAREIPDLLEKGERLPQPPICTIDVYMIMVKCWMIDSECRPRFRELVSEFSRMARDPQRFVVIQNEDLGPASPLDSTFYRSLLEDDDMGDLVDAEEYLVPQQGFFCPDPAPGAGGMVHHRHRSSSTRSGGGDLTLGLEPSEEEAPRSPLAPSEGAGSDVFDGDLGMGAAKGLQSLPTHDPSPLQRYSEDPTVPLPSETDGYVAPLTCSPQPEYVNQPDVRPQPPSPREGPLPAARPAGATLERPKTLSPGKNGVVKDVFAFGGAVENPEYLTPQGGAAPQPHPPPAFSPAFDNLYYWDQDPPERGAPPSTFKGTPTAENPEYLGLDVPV

[9] = target: PIK3CA(C420R) (Homo sapiens, UniProt P42336, C420R)
[10] = target: T4, NEK3 (Homo sapiens, UniProt P51956)
T4 sequence (P51956 1-506): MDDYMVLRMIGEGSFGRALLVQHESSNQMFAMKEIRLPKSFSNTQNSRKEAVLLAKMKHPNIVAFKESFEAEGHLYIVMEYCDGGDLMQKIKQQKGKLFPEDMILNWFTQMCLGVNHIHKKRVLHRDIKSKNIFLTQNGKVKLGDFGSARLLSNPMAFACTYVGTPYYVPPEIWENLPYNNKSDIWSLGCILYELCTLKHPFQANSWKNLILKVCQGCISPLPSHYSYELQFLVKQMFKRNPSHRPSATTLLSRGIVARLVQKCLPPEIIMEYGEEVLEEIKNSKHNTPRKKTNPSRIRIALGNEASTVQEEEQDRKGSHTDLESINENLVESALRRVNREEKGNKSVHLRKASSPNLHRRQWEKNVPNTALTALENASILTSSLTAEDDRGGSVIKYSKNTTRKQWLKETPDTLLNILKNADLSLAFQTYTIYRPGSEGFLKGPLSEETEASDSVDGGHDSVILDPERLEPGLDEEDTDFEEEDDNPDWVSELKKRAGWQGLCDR

[11] = target: EGFR(G719S) (Homo sapiens, UniProt P00533, G719S)
Chain of EGFR(G719S) (P00533 whole entry G719S): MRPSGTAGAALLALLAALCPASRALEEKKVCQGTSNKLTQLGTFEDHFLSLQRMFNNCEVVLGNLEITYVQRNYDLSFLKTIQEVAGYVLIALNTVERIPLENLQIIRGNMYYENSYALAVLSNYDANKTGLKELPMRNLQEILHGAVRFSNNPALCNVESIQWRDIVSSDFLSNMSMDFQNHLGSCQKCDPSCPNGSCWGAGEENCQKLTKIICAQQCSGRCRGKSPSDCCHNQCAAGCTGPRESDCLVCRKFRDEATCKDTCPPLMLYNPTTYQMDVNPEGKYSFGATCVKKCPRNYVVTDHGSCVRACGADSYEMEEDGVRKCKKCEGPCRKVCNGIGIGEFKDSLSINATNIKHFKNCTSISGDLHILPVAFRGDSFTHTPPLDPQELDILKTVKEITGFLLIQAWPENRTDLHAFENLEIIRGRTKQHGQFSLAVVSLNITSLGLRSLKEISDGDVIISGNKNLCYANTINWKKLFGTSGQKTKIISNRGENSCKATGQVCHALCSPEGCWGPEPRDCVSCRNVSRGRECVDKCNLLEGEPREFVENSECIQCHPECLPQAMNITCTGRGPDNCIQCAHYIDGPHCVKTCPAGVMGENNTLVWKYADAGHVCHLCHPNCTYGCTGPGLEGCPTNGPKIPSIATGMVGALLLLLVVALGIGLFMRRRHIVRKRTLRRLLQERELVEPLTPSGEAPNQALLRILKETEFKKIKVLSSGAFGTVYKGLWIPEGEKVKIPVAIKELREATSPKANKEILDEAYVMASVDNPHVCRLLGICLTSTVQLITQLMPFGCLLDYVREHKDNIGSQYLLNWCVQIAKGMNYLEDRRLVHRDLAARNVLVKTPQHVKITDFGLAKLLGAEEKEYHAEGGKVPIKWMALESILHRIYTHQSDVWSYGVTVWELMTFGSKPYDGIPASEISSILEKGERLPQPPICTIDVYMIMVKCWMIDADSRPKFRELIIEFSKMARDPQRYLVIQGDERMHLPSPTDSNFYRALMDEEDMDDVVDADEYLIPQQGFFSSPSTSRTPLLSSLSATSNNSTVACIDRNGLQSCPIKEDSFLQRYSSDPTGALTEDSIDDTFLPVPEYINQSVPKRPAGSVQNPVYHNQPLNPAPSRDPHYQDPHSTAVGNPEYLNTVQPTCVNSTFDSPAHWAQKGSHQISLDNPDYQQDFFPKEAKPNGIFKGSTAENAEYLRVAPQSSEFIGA

[12] = read-out: Niraparib (MK-4827) / %Ctrl @ 10000nM
[13] = read-out: Olaparib / %Ctrl @ 10000nM
[14] = read-out: Rucaparib / %Ctrl @ 10000nM, binding competition, % of control
[15] = read-out: Talazoparib (BMN 673) / %Ctrl @ 10000nM

Chain of KIT(V559D,T670I) (P10721 whole entry V559D/T670I): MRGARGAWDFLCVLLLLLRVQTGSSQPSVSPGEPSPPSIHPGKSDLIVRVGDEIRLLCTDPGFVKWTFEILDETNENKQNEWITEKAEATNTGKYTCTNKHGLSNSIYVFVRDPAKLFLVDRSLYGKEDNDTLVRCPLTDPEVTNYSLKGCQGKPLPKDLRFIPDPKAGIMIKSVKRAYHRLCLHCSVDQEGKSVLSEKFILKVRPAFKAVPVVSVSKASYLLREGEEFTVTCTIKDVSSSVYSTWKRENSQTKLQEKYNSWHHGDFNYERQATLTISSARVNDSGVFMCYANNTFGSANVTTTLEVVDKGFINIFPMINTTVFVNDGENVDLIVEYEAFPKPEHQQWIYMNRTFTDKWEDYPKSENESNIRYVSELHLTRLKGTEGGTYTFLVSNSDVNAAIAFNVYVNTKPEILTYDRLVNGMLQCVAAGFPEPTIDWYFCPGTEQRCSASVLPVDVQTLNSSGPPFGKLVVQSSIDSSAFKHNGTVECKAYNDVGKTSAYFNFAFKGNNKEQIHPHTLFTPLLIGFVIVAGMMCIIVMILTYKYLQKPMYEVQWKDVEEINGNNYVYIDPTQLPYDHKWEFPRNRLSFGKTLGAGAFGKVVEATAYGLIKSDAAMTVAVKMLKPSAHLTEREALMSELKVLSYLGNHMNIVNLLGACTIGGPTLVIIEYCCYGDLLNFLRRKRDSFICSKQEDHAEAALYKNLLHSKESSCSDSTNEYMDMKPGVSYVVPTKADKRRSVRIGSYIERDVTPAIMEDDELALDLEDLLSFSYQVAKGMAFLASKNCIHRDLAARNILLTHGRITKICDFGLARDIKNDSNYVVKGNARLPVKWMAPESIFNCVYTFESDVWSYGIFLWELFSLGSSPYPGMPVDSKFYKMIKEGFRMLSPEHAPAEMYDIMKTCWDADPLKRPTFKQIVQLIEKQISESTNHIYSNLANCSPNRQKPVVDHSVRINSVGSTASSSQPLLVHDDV

With `NC(=O)c1cccc2cn(-c3ccc([C@@H]4CCCNC4)cc3)nc12` [Niraparib] the percent of control binding at 10 µM [1, 12] was 97%, the percent of control binding at 10 µM [2, 12] was 96% and the percent of control binding at 10 µM [3, 12] was 38%. For the same compound, the percent of control binding at 10 µM [4, 12] was 100%, the percent of control binding at 10 µM [5, 12] was 98% and the percent of control binding at 10 µM [6, 12] was 92%. For the same compound, the percent of control binding at 10 µM [7, 12] was 73%, the percent of control binding at 10 µM [8, 12] was 82% and the percent of control binding at 10 µM [9, 12] was 98%. For the same compound, the percent of control binding at 10 µM [10, 12] was 88% and the percent of control binding at 10 µM [11, 12] was 74%.

`O=C(c1cc(Cc2n[nH]c(=O)c3ccccc23)ccc1F)N1CCN(C(=O)C2CC2)CC1` [Olaparib] gave a percent of control binding at 10 µM [1, 13] of 92%, a percent of control binding at 10 µM [2, 13] of 100% and a percent of control binding at 10 µM [3, 13] of 80%. It also gave a percent of control binding at 10 µM [4, 13] of 99%, a percent of control binding at 10 µM [5, 13] of 97% and a percent of control binding at 10 µM [6, 13] of 100%. The percent of control binding at 10 µM [7, 13] was 75%, the percent of control binding at 10 µM [8, 13] was 100% and the percent of control binding at 10 µM [10, 13] was 81%. For the same compound, the percent of control binding at 10 µM [11, 13] was 94%.

Work on `CNCc1ccc(-c2[nH]c3cc(F)cc4c3c2CCNC4=O)cc1` [Rucaparib] yielded a percent of control binding at 10 µM [1, 14] of 91%, a percent of control binding at 10 µM [2, 14] of 99% and a percent of control binding at 10 µM [3, 14] of 66%. It also gave a percent of control binding at 10 µM [4, 14] of 99%, a percent of control binding at 10 µM [5, 14] of 93% and a percent of control binding at 10 µM [6, 14] of 74%. For the same compound, the percent of control binding at 10 µM [7, 14] was 64%, the percent of control binding at 10 µM [8, 14] was 100% and the percent of control binding at 10 µM [9, 14] was 74%. It also gave a percent of control binding at 10 µM [10, 14] of 86% and a percent of control binding at 10 µM [11, 14] of 89%.

Work on `Cn1ncnc1[C@H]1c2n[nH]c(=O)c3cc(F)cc(c23)N[C@@H]1c1ccc(F)cc1` [Talazoparib] yielded a percent of control binding at 10 µM [1, 15] of 100%, a percent of control binding at 10 µM [2, 15] of 56% and a percent of control binding at 10 µM [3, 15] of 71%. For the same compound, the percent of control binding at 10 µM [4, 15] was 100%, the percent of control binding at 10 µM [5, 15] was 99% and the percent of control binding at 10 µM [6, 15] was 100%. For the same compound, the percent of control binding at 10 µM [7, 15] was 82%, the percent of control binding at 10 µM [8, 15] was 98% and the percent of control binding at 10 µM [9, 15] was 100%. For the same compound, the percent of control binding at 10 µM [10, 15] was 66% and the percent of control binding at 10 µM [11, 15] was 99%.
